According to patent US20050004126A1 (priority 2001, published 2005):

What follows are compounds tested against MMP-13CD (catalytic domain of collagenase 3) (Homo sapiens, UniProt P45452) (assay: Thiopeptolide hydrolysis assay, MMP-13). Conditions: IC50 μM, Table V; MMP-13.
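Also: inhibition of enzymatic thiopeptolide substrate cleavage (100 µM) in pH 6.0 MES buffer with CaCl2 and DTNB, comparing hydrolysis with versus without inhibitor.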

Row | Compound | IC50
1 | COc1ccc(CNC(=O)c2ccc3c(c2)c(=O)n(Cc2ccc(C(=O)N(C)C)cc2)c2nncn32)cc1 [4-(4-Dimethylcarbamoyl-benzyl)-5-oxo-4,5-dihydro-[1,2,4]triazolo[4,3-a]quinazoline-7-carboxylic acid 4-methoxy-benzylamide] | 0.0087 µM
2 | O=C(NCc1ccncc1)c1ccc2c(c1)c(=O)n(Cc1ccccc1)c1nncn21 [4-Benzyl-5-oxo-4,5-dihydro-[1,2,4]triazolo[4,3-a]quinazoline-7-carboxylic acid (pyridin-4-ylmethyl)-amide] | 0.04 µM
3 | O=C(NCc1ccc2c(c1)OCO2)c1ccc2c(c1)c(=O)n(Cc1ccccc1)c1nccn21 [4-Benzyl-5-oxo-4,5-dihydro-imidazo[1,2-a]quinazoline-7-carboxylic acid (benzo[1,3]dioxol-5-ylmethyl)-amide] | 0.165 µM
4 | O=C(NCc1ccncc1)c1ccc2c(c1)c(=O)n(Cc1ccccc1)c1nccn21 [4-Benzyl-5-oxo-4,5-dihydro-imidazo[1,2-a]quinazoline-7-carboxylic acid (pyridin-4-ylmethyl)-amide] | 2.1 µM
5 | COc1ccc(CNC(=O)c2ccc3c(c2)c(=O)n(CCOc2ccc(Cl)cc2)c2nncn32)cc1 [4-[2-(4-Chloro-phenoxy)-ethyl]-5-oxo-4,5-dihydro-[1,2,4]triazolo[4,3-a]quinazoline-7-carboxylic acid 4-methoxy-benzylamide] | 0.0865 µM
6 | O=C(O)c1ccc(Cn2c(=O)c3cc(C(=O)NCc4ccc(F)cc4)ccc3n3cnnc23)cc1 [4-{7-[(4-Fluoro)-benzylcarbamoyl]-5-oxo-5H-[1,2,4]triazolo[4,3-a]quinazol-4-ylmethyl}benzoic acid] | 0.0011 µM
7 | O=C(O)c1ccc(Cn2c(=O)c3cc(C(=O)NCc4ccncc4)ccc3n3cnnc23)cc1 [4-{7-[(Pyridin-4-ylmethyl)-carbamoyl]-5-oxo-5H-[1,2,4]triazolo[4,3-a]quinazol-4-ylmethyl} benzoic acid] | 0.0042 µM

Same assay, conditions: MMP13 IC50 μM, Table IVb

Row | Compound | IC50
8 | COc1ccc(CNC(=O)c2cnc3c(c2)c(=O)n(Cc2ccc(C#N)cc2)c(=O)n3C)cc1 [3-(4-Cyano-benzyl)-1-methyl-2,4-dioxo-1,2,3,4-tetrahydro-pyrido[2,3-d] pyrimidine-6-carboxylic acid 4-methoxy-benzylamide] | 0.016 µM
9 | COc1ccc(CNC(=O)c2cnc3c(c2)c(=O)n(Cc2ccc(F)cc2)c(=O)n3C)cc1 [3-(4-Fluoro-benzyl)-1-methyl-2,4-dioxo-1,2,3,4-tetrahydro-pyrido[2,3-d]pyrimidine-6-carboxylic acid 4-methoxy-benzylamide] | 0.032 µM
10 | Cn1c(=O)n(Cc2ccccc2)c(=O)c2cc(C(=O)NCc3ccc4c(c3)OCO4)cnc21 [3-Benzyl-1-methyl-2,4-dioxo-1,2,3,4-tetrahydro-pyrido[2,3-d] pyrimidine-6-carboxylic acid (1,3-benzodioxol-5-ylmethyl)-amide] | 0.007 µM
11 | Cn1c(=O)n(Cc2ccccc2)c(=O)c2cc(C(=O)NCc3ccc4c(c3)OCO4)ncc21 [3-Benzyl-1-methyl-2,4-dioxo-1,2,3,4-tetrahydro-pyrido[3,4-d]pyrimidine-6-carboxylic acid (1,3-benzodioxol-5-ylmethyl)-amide] | 0.00078 µM
12 | Cn1c(=O)n(Cc2ccccc2)c(=O)c2cc(C(=O)CCc3ccccc3)ccc21 [3-Benzyl-1-methyl-6-(3-phenyl-propionyl)-1H-quinazoline-2,4-dione] | 2.9 µM
13 | Cn1c(=O)n(Cc2ccccc2)c(=O)c2cc(SCc3ccccc3)ccc21 [3-Benzyl-6-benzylsulfanyl-1-methyl-1H-quinazoline-2,4-dione] | 4.1 µM
14 | COc1ccc(CNC(=O)c2cnc3c(c2)c(=O)n(Cc2ccc(C(=O)O)cc2)c(=O)n3C)cc1 [4-[6-(4-Methoxy-benzylcarbamoyl)-1-methyl-2,4-dioxo-1,4-dihydro-2H-pyrido[2,3-d]pyrimidin-3-ylmethyl]-benzoic acid] | 0.0016 µM

Same assay, conditions: MMP13 IC50 (nM), Table II

Row | Compound | IC50
15 | O=C(OCc1ccccc1)c1cc(C(=O)OCc2ccccc2)cc([N+](=O)[O-])c1 [5-Nitro-isophthalic acid dibenzyl ester] | 1.5 µM
